Test results from the NIST ThermoML archive (doi:10.1021/acs.jced.9b00243).
Numbers after ± are expanded uncertainties.

What was measured:
[1] = Crystal; DSC
[2] = Molar enthalpy of transition or fusion; details: Crystal; DSC

In the case of N#CCc1ccccc1[N+](=O)[O-] [o-nitrophenylacetonitrile], the Triple point temperature [1] is reported as 351.59 ± 1.2 K and the “Molar enthalpy of transition or fusion” value [2] is reported as 3.4 ± 0.22 kcal/mol.
